For 21 molecules, IC50 and EC50 results are on record in patent US20260327232A1, “Heteroaryl Compounds as Ligand Directed Degraders of IRAK4” (Celgene Corporation, priority 2023, published 2026).

SMILES strings stand for the structures. Counter-ions that a name gives are not always drawn. A value given as a limit tells only on which side of the number the result lay.

The target in test [1] is T1, IRAK4 (Homo sapiens, UniProt Q9NWZ3).
T1 sequence (Q9NWZ3 1-460): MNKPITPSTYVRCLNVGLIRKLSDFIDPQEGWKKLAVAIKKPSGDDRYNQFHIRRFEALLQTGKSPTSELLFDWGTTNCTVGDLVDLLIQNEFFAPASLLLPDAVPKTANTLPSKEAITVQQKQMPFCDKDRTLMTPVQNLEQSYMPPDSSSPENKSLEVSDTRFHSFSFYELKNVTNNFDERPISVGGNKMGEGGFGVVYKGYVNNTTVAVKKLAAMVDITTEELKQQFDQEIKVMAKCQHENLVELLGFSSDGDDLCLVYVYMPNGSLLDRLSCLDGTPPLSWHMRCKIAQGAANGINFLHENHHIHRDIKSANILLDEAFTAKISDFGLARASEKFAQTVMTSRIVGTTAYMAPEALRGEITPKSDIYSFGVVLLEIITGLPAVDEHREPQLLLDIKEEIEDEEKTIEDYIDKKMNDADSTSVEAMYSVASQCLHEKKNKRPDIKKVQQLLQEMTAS
The test can be described thus: IRAK4 PhosphoSens Biochemical Assay (BIOCHEM). The following applies: 200 μM ATP, 10 μM peptide substrate AQT0326, 1 nM IRAK4, room temperature, 240 minutes.

Test [2] deals with T1, IRAK4. The test can be described thus: ALE THP1 HTRF (IRAK4 in THP1 cell lysates, Homogeneous Time Resolved Fluorescence). As to conditions: THP1 cells. Also noted: THP1 Homogeneous Time Resolved Fluorescence (ALE THP1 HTRF) Procedure; endogenous in cells; host or cells: THP1. Type of test: cell-based. How it is done:
Cell culture media was prepared in a tissue culture hood in a sterile environment by adding 10% FBS and 1% Penicillin Streptomycin to 500 mL no phenol red RPMI 1640 media. The media was filtered through a Nalgene Bottle Top Filter and stored at 4° C.
For Homogenous Time Resolved Fluorescence (HTRF) assays, a Cisbio HTRF kit was used, which included: Lysis Buffer #1 4×, Blocking Reagent #3 100×, 20× Antibody 1 (Anti-IRAK4 d2), 20× Antibody 2 (Anti-IRAK4 k), and Detection Buffer.
4× Lysis Buffer was stored at 4° C. For use as 1× Lysis buffer, the 4× solution was diluted with de-ionized water (distilled water, Gibco Cat. #15230279) and 100× Blocking Reagent in a 1:3:0.04 volume ratio.
20× Antibody Solution aliquots were stored in −80° C. and the Detection Buffer was stored in 4° C. For use as a 1× Antibody Solution, the 20× Antibody Solution aliquot was diluted with Detection Buffer in a 1:19 volume ratio.
Cells were lysed at room temperature for 45 min with shaking. A BCA protein assay was performed and normalization was conducted to the desired total protein concentration with 1× lysis buffer. Next, 1× Antibody Solutions were prepared by adding 380 μL Detection Buffer to 20 μL 20× Antibody Solution aliquots and mixing well. 1× Antibody Solutions were combined 1:1 and briefly vortexed. For control wells, 20 μL 1× anti IRAK4-k Antibody Solution was saved. The 384-well plate (ProxiPlate-384 Plus, Perkin Elmer Cat. #6008289) was loaded by adding 4 μL of the mixed Antibody Solution to empty wells using a single channel repeater. Using a multi-channel repeater, 16 μL lysate was added per well, and any bubbles that were formed were popped with 20 μL pipette tips and Kimwipe edges. In column 10, triplicates of each control was prepared. In wells A10, B10, and C10, buffer control was prepared by adding 16 μL Lysis Buffer and 4 μL Detection Buffer. In wells D10, E10, and F10, cryptate control was prepared by adding 16 μL Lysis Buffer, 2 μL Detection Buffer, and 2 μL 1× anti IRAK4-k Antibody Solution. In wells G10, H10, and 110, a negative control was prepared by adding 16 μL Lysis Buffer and 4 μL mixed Antibody Solution. The plate was sealed with a clear seal and covered with an aluminum lid. The plate was spun down at 800 g for 5 min and incubated in the dark at room temperature overnight. The next day, the plate was spun down at 800 g for 5 min. The samples were analyzed by a plate reader (Envision, PerkinElmer) using the Desnor 384 HTRF program.
A general note: TR-FRET usually uses a lanthanide donor and a delayed reading to cut background.

By IC50 is commonly meant the concentration that gives 50% inhibition. Higher therefore signals lower potency. As a reminder, the EC50 is the concentration giving half of the maximal effect. Higher therefore signals a need for much substance. The molecule `Cn1nc(C2CCC(=O)NC2=O)c2ccc(NC3CCN(C(=O)[C@H]4CC[C@H](n5cc(NC(=O)c6cnn7ccc(N8C[C@H](N)C[C@@H](F)C8)nc67)c(C(F)F)n5)CC4)CC3)cc21` (some centres unmarked) [P-1] came in with an IC50 in test [1] of 0.5 nM. This molecule also returned an EC50 in test [2] of over 10000 nM.
In the case of `Cn1nc(C2CCC(=O)NC2=O)c2ccc(N3CCC(NC(=O)[C@H]4CC[C@H](n5cc(NC(=O)c6cnn7ccc(N8C[C@H](N)C[C@@H](F)C8)nc67)c(C(F)F)n5)CC4)CC3)cc21` (stereo partly drawn) [P-4, 5-((3R,5R)-3-amino-5-fluoropiperidin-1-yl)-N-(3-(difluoromethyl)-1-((1r,4r)-4-((1-(3-(2,6-dioxopiperidin-3-yl)-1-methyl-1H-indazol-6-yl)piperidin-4-yl)carbamoyl)cyclohexyl)-1H-pyrazol-4-yl)pyrazolo[1,5-a]pyrimidine-3-carboxamide hydrochloride], the IC50 in test [1] is under 0.5 nM. Further, the half-maximal effective concentration (EC50) in test [2] is 5.6 nM.
Take `Cn1nc(C2CCC(=O)NC2=O)c2ccc(N3CCC(NC[C@H]4CC[C@H](n5cc(NC(=O)c6cnn7ccc(N8C[C@H](N)C[C@@H](F)C8)nc67)c(C(F)F)n5)CC4)CC3)cc21` (stereo partly drawn) [P-5, 5-((3R,5R)-3-Amino-5-fluoropiperidin-1-yl)-N-(3-(difluoromethyl)-1-((1r,4r)-4-(((1-(3-(2,6-dioxopiperidin-3-yl)-1-methyl-1H-indazol-6-yl)piperidin-4-yl)amino)methyl)cyclohexyl)-1H-pyrazol-4-yl)pyrazolo[1,5-a]pyrimidine-3-carboxamide dihydrochloride]: the IC50 in test [1] was under 0.5 nM. In test [2], this molecule gave an EC50 of 5 nM.
Taken in the same sequence, the figures for `Cn1nc(C2CCC(=O)NC2=O)c2cccc(N3CCC(NC(=O)[C@H]4CC[C@H](n5cc(NC(=O)c6cnn7ccc(N8C[C@H](N)C[C@@H](F)C8)nc67)c(C(F)F)n5)CC4)CC3)c21` (some centres unmarked) [P-6] were under 0.5 nM and 5 nM.
Taken in the same sequence, the figures for `Cn1nc(C2CCC(=O)NC2=O)c2cccc(NC3CCN(CCC4CCC(n5cc(NC(=O)c6cnn7ccc(N8C[C@H](N)C[C@@H](F)C8)nc67)c(C(F)F)n5)CC4)CC3)c21` (stereo partly drawn) [P-7, N-[3-(difluoromethyl)-1-[4-[2-[4-[[3-(2,6-dioxo-3-piperidyl)-1-methyl-indazol-7-yl]amino]-1-piperidyl]ethyl]cyclohexyl]pyrazol-4-yl]-5-[(3R,5R)-3-amino-5-fluoro-1-piperidyl]pyrazolo[1,5-a]pyrimidine-3-carboxamide bis-HCl salt] were under 0.5 nM and 12 nM.
Taken in the same sequence, the figures for `Cn1nc(C2CCC(=O)NC2=O)c2cccc(N3CCN(C[C@H]4CC[C@H](n5cc(NC(=O)c6cnn7ccc(N8C[C@H](N)C[C@@H](F)C8)nc67)c(C(F)F)n5)CC4)CC3)c21` (some centres unmarked) [P-8] were under 0.5 nM and 7 nM.
For `Cn1nc(C2CCC(=O)NC2=O)c2cccc(NC3CCN(C(=O)[C@H]4CC[C@H](n5cc(NC(=O)c6cnn7ccc(N8C[C@H](N)C[C@@H](F)C8)nc67)c(C(F)F)n5)CC4)CC3)c21` (stereo partly drawn) [P-9, 5-((3R,5R)-3-amino-5-fluoropiperidin-1-yl)-N-(3-(difluoromethyl)-1-((1r,4r)-4-(4-((3-(2,6-dioxopiperidin-3-yl)-1-methyl-1H-indazol-7-yl)amino)piperidine-1-carbonyl)cyclohexyl)-1H-pyrazol-4-yl)pyrazolo[1,5-a]pyrimidine-3-carboxamide hydrochloride], the IC50 in test [1] was under 0.5 nM. For the same molecule, the EC50 in test [2] stood at 4 nM.
`Cn1nc(C2CCC(=O)NC2=O)c2ccc(N3CCN(CC[C@H]4CC[C@H](n5cc(NC(=O)c6cnn7ccc(N8C[C@H](N)C[C@@H](F)C8)nc67)c(C(F)F)n5)CC4)CC3)cc21` (some centres unmarked) [P-10] gave an IC50 in test [1] of under 0.5 nM. In test [2], this molecule showed an EC50 of 14 nM.
Taken in the same sequence, the figures for `Cn1nc(C2CCC(=O)NC2=O)c2cccc(N3CCN(CCC4CCC(n5cc(NC(=O)c6cnn7ccc(N8C[C@H](N)C[C@@H](F)C8)nc67)c(C(F)F)n5)CC4)CC3)c21` (some centres unmarked) [P-11] were under 0.5 nM and 17 nM.
Taken in the same sequence, the figures for `Cn1nc(C2CCC(=O)NC2=O)c2ccc(NC3CC4(C3)CN(CC3CCC(n5cc(NC(=O)c6cnn7ccc(N8C[C@H](N)C[C@@H](F)C8)nc67)c(C(F)F)n5)CC3)C4)cc21` (some centres unmarked) [P-12] were under 0.5 nM and 6 nM.
Taken in the same sequence, the figures for `Cn1nc(C2CCC(=O)NC2=O)c2ccc(NC3CN(C[C@H]4CC[C@H](n5cc(NC(=O)c6cnn7ccc(N8C[C@H](N)C[C@@H](F)C8)nc67)c(C(F)F)n5)CC4)C3)cc21` (some centres unmarked) [P-13] were under 0.5 nM and 1 nM.
In test [1], `Cn1nc(C2CCC(=O)NC2=O)c2ccc(N3CCN(C[C@H]4CC[C@H](n5cc(NC(=O)c6cnn7ccc(N8C[C@H](N)C[C@@H](F)C8)nc67)c(C(F)F)n5)CC4)CC3)cc21` (some centres unmarked) [P-14] returned an IC50 of under 0.5 nM. Also, the 50% effective concentration (EC50) in test [2] was over 10000 nM.
Molecule `Cn1nc(C2CCC(=O)NC2=O)c2cccc(N3CCC(NC[C@H]4CC[C@H](n5cc(NC(=O)c6cnn7ccc(N8C[C@H](N)C[C@@H](F)C8)nc67)c(C(F)F)n5)CC4)CC3)c21` (some centres unmarked) [P-15] came in with an IC50 in test [1] of under 0.5 nM. In test [2], this molecule yielded an EC50 of 10 nM.
Taken in the same sequence, the figures for `Cn1nc(C2CCC(=O)NC2=O)c2ccc(NC3CCN(CC[C@H]4CC[C@H](n5cc(NC(=O)c6cnn7ccc(N8C[C@H](N)C[C@@H](F)C8)nc67)c(C(F)F)n5)CC4)CC3)cc21` (some centres unmarked) [P-16] were under 0.5 nM and 5 nM.
Taken in the same sequence, the figures for `Cn1nc(C2CCC(=O)NC2=O)c2ccc(C(=O)N3CCN(C[C@H]4CC[C@H](n5cc(NC(=O)c6cnn7ccc(N8C[C@H](N)C[C@@H](F)C8)nc67)c(C(F)F)n5)CC4)CC3)cc21` (some centres unmarked) [P-17] were under 0.5 nM and 1 nM.
In test [1], `Cn1nc(C2CCC(=O)NC2=O)c2ccc(NC3CCN(CC4CCC(n5cc(NC(=O)c6cnn7ccc(N8C[C@H](N)C[C@H](F)C8)nc67)c(C(F)F)n5)CC4)CC3)cc21` (some centres unmarked) [P-19] returned an IC50 of under 0.5 nM. In addition, the half-maximal effective concentration (EC50) in test [2] came out at 5 nM.
Taken in the same sequence, the figures for `Cn1nc(C2CCC(=O)NC2=O)c2ccc(NC3CCN(C[C@H]4CC[C@H](n5cc(NC(=O)c6cnn7ccc(N8C[C@H](N)CC(F)(F)C8)nc67)c(C(F)F)n5)CC4)CC3)cc21` (some centres unmarked) [P-20] were under 0.5 nM and 5 nM.
With `Cn1nc(C2CCC(=O)NC2=O)c2ccc(N[C@@H]3CCN(CC4CCC(n5cc(NC(=O)c6cnn7ccc(N8C[C@H](N)C[C@@H](F)C8)nc67)c(C(F)F)n5)CC4)C[C@H]3F)cc21` (some centres unmarked) [P-22], the IC50 in test [1] was under 0.5 nM. In addition, the EC50 in test [2] is 5 nM.
Taken in the same sequence, the figures for `Cn1nc(C2CCC(=O)NC2=O)c2ccc(N[C@H]3CCN(C[C@H]4CC[C@H](n5cc(NC(=O)c6cnn7ccc(N8C[C@H](N)C[C@@H](F)C8)nc67)c(C(F)F)n5)CC4)C[C@H]3F)cc21` (some centres unmarked) [P-23] were under 0.5 nM and 4 nM.
On to `Cn1nc(C2CCC(=O)NC2=O)c2ccc(OC3CCN(C[C@H]4CC[C@H](n5cc(NC(=O)c6cnn7ccc(N8C[C@H](N)C[C@@H](F)C8)nc67)c(C(F)F)n5)CC4)CC3)cc21` (some centres unmarked) [P-26], for which, in test [1], the IC50 is under 0.5 nM. The molecule further had a 50% effective concentration (EC50) in test [2] of 11 nM.
With `Cc1ccc(Nc2ccn3ncc(C(=O)Nc4cn([C@H]5CC[C@H](CN(C)C6CCN(c7ccc8c(C9CCC(=O)NC9=O)nn(C)c8c7)CC6)CC5)nc4C(F)F)c3n2)cn1` (some centres unmarked) [P-48], the EC50 in test [2] came to 3510 nM.
